Results from the supplement of paper PMC9701192.
± gives the uncertainty stated by the source.

How the values were obtained:
Assay in all cases: mass response relative to vehicle control (EMD distance of treated vs reference mass distribution minus control baseline) (% of mean reference cell mass); higher = larger drug-induced change in single-cell mass distribution (stronger response)
[1] = tested on: H929
Procedure: (§1)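 Cancer cell lines were treated in vitro with drugs at the listed doses (about 24 h; 0.25% DMSO vehicle). Single-cell buoyant mass was measured on suspended microchannel resonator instruments with CNN image curation, 2500 cells per condition. Mass response is the Earth Mover's Distance to vehicle-treated reference cells as % of mean reference mass.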

[2] = tested on: HT-29
Procedure: as §1

[3] = tested on: H2228
Procedure: as §1

[4] = tested on: H1666
Procedure: as §1

[5] = tested on: KMS-12-PE
Procedure: as §1

[6] = tested on: A549
Procedure: as §1

[7] = tested on: PA-TU-8902
Procedure: as §1

[8] = tested on: MV-4-11
Procedure: as §1

Q: How did the mass response ([1]; 0.05 µM) turn out when `CCN1CCN(Cc2ccc(Nc3ncc(F)c(-c4cc(F)c5nc(C)n(C(C)C)c5c4)n3)nc2)CC1` [Abemaciclib] was run?
A: 13.7 ± 3.8

Q: What about the mass response ([1]; 0.5 µM) of the same molecule?
A: 10.7 ± 3.7

Q: What about the mass response ([1]; 5 µM) of the same molecule?
A: 22.1 ± 2.2

Q: What about the mass response ([1]; 20 µM) of the same molecule?
A: 29.6 ± 1.8

Q: Which results are given for `CC(C)C[C@H](NC(=O)[C@H](Cc1ccccc1)NC(=O)c1cnccn1)B(O)O` [Bortezomib]?
A: mass response ([1]; 0.001 µM): -0.979 ± 1.1; mass response ([1]; 0.005 µM): 24.1 ± 2.9; mass response ([1]; 0.025 µM): 34.2 ± 4.2; mass response ([1]; 0.05 µM): 33.7 ± 4.1

Q: With `CCc1c2c(nc3ccc(O)cc13)-c1cc3c(c(=O)n1C2)COC(=O)[C@]3(O)CC` [SN-38] as the molecule, how does the mass response ([2]; 0.01 µM) read?
A: 15.5 ± 0.51

Q: And the mass response ([2]; 0.1 µM)?
A: 11.1 ± 2.3

Q: And the mass response ([2]; 1 µM)?
A: 10.6 ± 0.61

Q: And the mass response ([2]; 10 µM)?
A: 18 ± 3

Q: `COc1cc2nccc(Oc3ccc(NC(=O)C4(C(=O)Nc5ccc(F)cc5)CC4)cc3)c2cc1OC` [Cabozantinib] was tested. Which mass response ([3]; 0.01 µM) did it give?
A: 0.815 ± 0.96

Q: And the mass response ([3]; 0.1 µM)?
A: 1.67 ± 0.69

Q: What about the mass response ([3]; 1 µM) of the same molecule?
A: -1.71 ± 0.46

Q: What about the mass response ([3]; 10 µM) of the same molecule?
A: 15.5 ± 1

Q: How did the mass response ([4]; 0.01 µM) turn out when `COC(=O)N[C@@H](C)CNc1nccc(-c2cn(C(C)C)nc2-c2cc(Cl)cc(NS(C)(=O)=O)c2F)n1` [Encorafenib] was run?
A: 1.22 ± 0.73

Q: And the mass response ([4]; 0.1 µM)?
A: -0.00481 ± 0.44

Q: What about the mass response ([4]; 1 µM) of the same molecule?
A: 11.9 ± 4.1

Q: What about the mass response ([4]; 10 µM) of the same molecule?
A: 20.6 ± 3.6

Q: Which results are given for `CC1(C)CCC(CN2CCN(c3ccc(C(=O)NS(=O)(=O)c4ccc(NCC5CCOCC5)c([N+](=O)[O-])c4)c(Oc4cnc5[nH]ccc5c4)c3)CC2)=C(c2ccc(Cl)cc2)C1` [Venetoclax]?
A: mass response ([5]; 0.005 µM): 0.784 ± 4.6; mass response ([5]; 0.05 µM): 22.2 ± 0.87; mass response ([5]; 0.5 µM): 35.5 ± 0.37; mass response ([5]; 5 µM): 39.9 ± 4.1

Q: `CN(C)C(=O)c1cc2cnc(Nc3ccc(N4CCNCC4)cn3)nc2n1C1CCCC1` [Ribociclib] was tested. Which mass response ([1]; 0.1 µM) did it give?
A: 2.31 ± 0.72

Q: What about the mass response ([1]; 1 µM) of the same molecule?
A: 0.00401 ± 0.89

Q: What about the mass response ([1]; 10 µM) of the same molecule?
A: 1.33 ± 1.2

Q: And the mass response ([1]; 50 µM)?
A: 14.2 ± 3.9

Q: What does the source list for `CCc1cc2c(cc1N1CCC(N3CCOCC3)CC1)C(C)(C)c1[nH]c3cc(C#N)ccc3c1C2=O` [Alectinib]?
A: mass response ([6]; 0.1 µM): 3.04; mass response ([6]; 0.5 µM): 0.678; mass response ([6]; 1 µM): 3.27; mass response ([6]; 10 µM): 24.8

Q: Which results are given for `CO[C@H]1C[C@@H]2CC[C@@H](C)[C@@](O)(O2)C(=O)C(=O)N2CCCC[C@H]2C(=O)O[C@H]([C@H](C)C[C@@H]2CC[C@@H](OCCO)[C@H](OC)C2)CC(=O)[C@H](C)/C=C(\C)[C@@H](O)[C@@H](OC)C(=O)[C@H](C)C[C@H](C)/C=C/C=C/C=C/1C` [Everolimus]?
A: mass response ([7]; 0.5 µM): 8.53 ± 1.9; mass response ([7]; 5 µM): 9.89 ± 5.3; mass response ([7]; 20 µM): 8.18 ± 4; mass response ([7]; 50 µM): 16.6 ± 7

Q: `CC(=O)Nc1cccc(-n2c(=O)n(C3CC3)c(=O)c3c(Nc4ccc(I)cc4F)n(C)c(=O)c(C)c32)c1` [Trametinib] was tested. Which mass response ([2]; 0.01 µM) did it give?
A: 26.9 ± 6.7

Q: And the mass response ([2]; 0.1 µM)?
A: 27.1 ± 3.4

Q: And the mass response ([2]; 1 µM)?
A: 23.5 ± 0.46

Q: What about the mass response ([2]; 10 µM) of the same molecule?
A: 24.4 ± 0.46

Q: For `O=C(O)C(=O)O.[NH-][C@@H]1CCCC[C@H]1[NH-].[Pt+2]` [Oxaliplatin], which mass response ([7]; 0.5 µM) is on record?
A: 5.04 ± 2.9

Q: And the mass response ([7]; 5 µM)?
A: 1.26 ± 5

Q: What about the mass response ([7]; 25 µM) of the same molecule?
A: 27.3 ± 9.2

Q: And the mass response ([7]; 50 µM)?
A: 45.7 ± 3.4

Q: For `Cc1cc(Nc2ncc(Cl)c(Nc3ccccc3S(=O)(=O)C(C)C)n2)c(OC(C)C)cc1C1CCNCC1` [Ceritinib], which mass response ([3]; 0.01 µM) is on record?
A: 2.19 ± 0.97

Q: What about the mass response ([3]; 0.1 µM) of the same molecule?
A: 25.7 ± 7.5

Q: What about the mass response ([3]; 1 µM) of the same molecule?
A: 27.4 ± 6.2

Q: And the mass response ([3]; 10 µM)?
A: 61 ± 1

Q: `C[C@@H](Oc1cc(-c2cnn(C3CCNCC3)c2)cnc1N)c1c(Cl)ccc(F)c1Cl` [Crizotinib] was tested. Which mass response ([6]; 0.01 µM) did it give?
A: -1.1 ± 0.55

Q: And the mass response ([6]; 0.1 µM)?
A: -1.44 ± 0.16

Q: And the mass response ([6]; 1 µM)?
A: 6.6 ± 1.6

Q: And the mass response ([6]; 10 µM)?
A: 12.1 ± 0.61

Q: Which mass response ([7]; 25 µM) does the source give for `O=c1[nH]cc(F)c(=O)[nH]1` [Fluorouracil] here?
A: -2.58 ± 0.15

Q: What about the mass response ([7]; 50 µM) of the same molecule?
A: 1.92 ± 7

Q: What about the mass response ([7]; 0.0001 M) of the same molecule?
A: 8.61 ± 5.8

Q: What about the mass response ([7]; 0.00025 M) of the same molecule?
A: 30.2 ± 2.5

Q: For `CNC(=O)c1ccc(-c2cnc3ncc(Cc4ccc5ncccc5c4)n3n2)cc1F` [Capmatinib], which mass response ([2]; 0.01 µM) is on record?
A: 1.15 ± 0.93

Q: What about the mass response ([2]; 0.1 µM) of the same molecule?
A: 1.02 ± 2.5

Q: What about the mass response ([2]; 1 µM) of the same molecule?
A: 3.42 ± 3

Q: And the mass response ([2]; 10 µM)?
A: 12.2 ± 4.3

Q: For `CCCS(=O)(=O)Nc1ccc(F)c(C(=O)c2c[nH]c3ncc(-c4ccc(Cl)cc4)cc23)c1F` [Vemurafenib], which mass response ([2]; 0.01 µM) is on record?
A: -0.111 ± 1.9

Q: And the mass response ([2]; 0.1 µM)?
A: 2.67 ± 0.19

Q: What about the mass response ([2]; 1 µM) of the same molecule?
A: 16.5 ± 2.6

Q: And the mass response ([2]; 10 µM)?
A: 24.3 ± 2.1

Q: With `Nc1ccn([C@@H]2O[C@H](CO)[C@@H](O)C2(F)F)c(=O)n1` [Gemcitabine] as the molecule, how does the mass response ([7]; 0.002 µM) read?
A: 11.2 ± 4.4

Q: What about the mass response ([7]; 0.02 µM) of the same molecule?
A: 7.94 ± 0.91

Q: And the mass response ([7]; 0.2 µM)?
A: 5.91 ± 0.96

Q: And the mass response ([7]; 2 µM)?
A: 15.9 ± 3

Q: Which results are given for `Nc1ccn([C@@H]2O[C@H](CO)[C@@H](O)[C@@H]2O)c(=O)n1` [Cytarabine]?
A: mass response ([8]; 0.001 µM): -1.03 ± 0.38; mass response ([8]; 0.01 µM): 2.01 ± 0.69; mass response ([8]; 0.1 µM): 15 ± 1.3; mass response ([8]; 1 µM): 22.9 ± 0.31

Q: How did the mass response ([2]; 0.01 µM) turn out when `CC(C)(C)c1nc(-c2cccc(NS(=O)(=O)c3c(F)cccc3F)c2F)c(-c2ccnc(N)n2)s1` [Dabrafenib] was run?
A: 10.7 ± 9.3

Q: What about the mass response ([2]; 0.1 µM) of the same molecule?
A: 19.1 ± 5.2

Q: And the mass response ([2]; 1 µM)?
A: 24.3 ± 3.3

Q: And the mass response ([2]; 10 µM)?
A: 16.9 ± 6.3
